Patent US20260191968A1, “PROTAC DEGRADERS OF MLLT1 AND/OR MLLT3” (DARK BLUE THERAPEUTICS LTD, priority 2024, published 2026)

What was measured:
MLLT1 = biological target: T1, MLLT1 (Homo sapiens, UniProt Q03111); assay: MLLT1 degradation assay in MV4-11 cells (JESS chemiluminescent detection), three concentrations, 24 h; format: cell-based; settings: with respect to DMSO control
T1 construct: host or cells: MV4-11
T1 sequence (Q03111 1-559): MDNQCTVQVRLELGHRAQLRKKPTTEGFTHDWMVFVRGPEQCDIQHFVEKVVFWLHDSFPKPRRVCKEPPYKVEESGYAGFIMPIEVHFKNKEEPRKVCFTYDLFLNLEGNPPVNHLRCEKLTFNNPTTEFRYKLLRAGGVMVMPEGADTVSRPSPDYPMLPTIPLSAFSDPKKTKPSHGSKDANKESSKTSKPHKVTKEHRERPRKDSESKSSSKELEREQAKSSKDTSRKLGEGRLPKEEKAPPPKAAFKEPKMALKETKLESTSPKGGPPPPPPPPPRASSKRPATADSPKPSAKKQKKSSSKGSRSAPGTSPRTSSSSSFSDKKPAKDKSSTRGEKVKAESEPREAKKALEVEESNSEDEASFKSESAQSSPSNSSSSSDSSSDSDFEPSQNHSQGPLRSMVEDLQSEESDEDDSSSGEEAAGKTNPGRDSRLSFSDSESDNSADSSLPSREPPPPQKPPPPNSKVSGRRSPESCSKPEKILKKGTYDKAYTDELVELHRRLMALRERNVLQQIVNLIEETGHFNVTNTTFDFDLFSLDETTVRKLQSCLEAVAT
How it was run: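 MV4-11 cells treated 24 h at 37° C, 5% CO2 with 1000, 100 and 10 nM compound (0.1% DMSO final). MLLT1 quantified by automated capillary chemiluminescent immunodetection; band peak area expressed as % degradation relative to DMSO control.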

MV4-11 cells = assay: MV4-11 cellular proliferative assay, Assay Format A (CellTiter-Glo, 120 hours); format: cell-based; settings: Homo sapiens
How it was run: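 Over 120 h, MV4-11 cells seeded at 50 cells/well in IMDM/10% FBS were exposed to compound (10 semi-log dilutions, 30 μM top). Viability was read by CellTiter-Glo luminescence. Signals were normalised to DMSO and reference-compound wells, and AC50 came from a Hill fit.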

## CN1CCC[C@@H]1c1cc2cnc(NC(=O)c3ccc(CCCC#Cc4cccc5c4CN(C4CCC(=O)NC4=O)C5=O)cc3)cc2[nH]1 (stereo partly drawn) [Example 55, 4-(5-(2-(2,6-dioxopiperidin-3-yl)-1-oxoisoindolin-4-yl)pent-4-yn-1-yl)-N-(2-((R)-1-methylpyrrolidin-2-yl)-1H-pyrrolo[3,2-c]pyridin-6-yl)benzamide]
MLLT1; 0.01 μM
  MLLT1% Degradation @ 0.01 μM: A (Category A: A ≥ 75% degradation)
MLLT1; 0.1 μM
  MLLT1% Degradation @ 0.1 μM: A (Category A: A ≥ 75% degradation)
MLLT1; 1 μM
  MLLT1% Degradation @ 1 μM: A (Category A: A ≥ 75% degradation)
MV4-11 cells
  IC50: ≤ 100 nM
